Data set [1] is described as follows: Mouse liver microsomal stability/clearance. The data set is classed as in vitro ADME. To be noted: mouse liver microsomes; second value of Human/Mouse cell; read-out: Liver microsomal clearance (Mouse). As for the experimental part:
Human and mouse liver microsomal clearance assays were carried out in CROWN Biosciences (Taicang, China). The human liver microsomes (Cat No. X008067, Lot No. KQB) and mouse liver microsomes (Cat No. M1000, Lot No. 1210302) were purchased from Celsis and Xenotech, respectively.
5 μL of test compound stock solution was diluted with 495 μL of 1:1 Methanol/Water (final concentration: 100 μM, 50% MeOH) and combined with 534 μL of the respective liver microsome solution (final concentration: 1.111 μM, 0.555% MeOH). The final concentration of the liver microsome solution was 0.7 mg protein/mL.
Incubations of the liver microsome solutions were performed in a 96 well plate at 37° C. 90 μL of the liver microsome solutions were added to Blank, and 90 μL of working solution of the test compound was added to all plates except the Blank.
All plates thus obtained were warmed in water bath at 37° C. for 10 min, and 10 μL of NADPH co-factor solution comprising 42 mg of β-nicotinamide adenine dinucleotide phosphate (Sigma Cat. No. N0505 Lot 020M7009V), 84 mg of isocitric acid (Sigma Cat. No. 11252 Lot 119K1099) and 0.478 mL of isocitric dehydrogenase (Sigma Cat. No. 12002 Lot 086K7055, 15 units/mg protein, warmed in water bath at 37° C. for 5 min was added to the plates. The resulting plates were incubated at 37° C. in the following order: T60 (The test compounds were incubated with the liver microsomal solution and NADPH for 60 min at 37° C.), T30 (such as for 30 min.), and T10 (such as for 10 min.). 300 μL of a cold (4° C.) stop solution (acetonitrile (ACN) including 500 nM of tolbutamide as internal standard) and 10 μL of NADPH co-factor solution to starting plate (T0: 100% of the parent compound without any reaction) were added to the plates. The reaction was stopped by adding 300 μL of the cold (4° C.) stop solution to the other plates in the following order: T10 first, then T30 and T60.
The samples were centrifuged at 4,000 rpm for 20 min and transferred to Bioanalytical Services for liquid chromatography-mass spectrometry (LC-MS)/MS (Waters UPLC/API 4000, 10 μL injection) analysis.
For orientation: Liver microsomes are a subcellular fraction often used to study metabolism.

Data set [2] relates to HL60 (acute promyelocytic leukemia). Kind of data set: Anti-proliferative activity, HL60. The data set is classed as cell-based. The conditions noted are these: Homo sapiens, HL-60, read-out: Cell proliferation, IC50.
For data set [3], the system named is NCI-H526 (variant small cell lung cancer). Kind of data set: Anti-proliferative activity, NCI-H526. The data set is classed as cell-based. To be noted: Homo sapiens, read-out: Cell proliferation, IC50.
A further data set has as its system Daudi (B lymphoma). Kind of data set: Anti-proliferative activity, Daudi. The data set is classed as cell-based. To be noted: Homo sapiens, read-out: Cell proliferation, IC50.

The record followed here is patent US9884874B2, “Bromodomain-inhibiting compounds and pharmaceutical composition comprising same for preventing or treating a cancer” (KAINOS MEDICINE, INC., priority 2014, dated 2018).

Consider `COc1ccc2c(c1)C(c1ccc(Cl)cc1)=N[C@@H](COS(C)(=O)=O)c1nnc(C)n1-2` [Compound 1, (R)-(6-(4-chlorophenyl)-8-methoxy-1-methyl-4H-benzo[f]-[1,2,4]triazolo[4,3-a][1,4]diazepin-4-yl)methyl methanesulfonate], for which, in data set [1], the microsomal CLint at 1 µM came out at 4.7 µL/min/mg. The IC50 in data set [2] stood at 1.24 µM; in data set [3] it was 2.62 µM; in the data set with Daudi (B lymphoma), 5.09 µM.
